Data as given in patent US20250027930A1, “SMALL MOLECULES FOR REPROGRAMING ANTI-TUMOR IMMUNITY OF T CELLS” (THE SCRIPPS RESEARCH INSTITUTE, priority 2021, published 2025).

Columns and labels:
OT-1 cells = assay: OT-I-Tcf7GFP splenocyte screen: proliferation and Tim3−TCF-1+ ratio; format: cell-based, mouse; conditions: Day7, 50 mM
Method: Cell number was recorded on day 3 and day 7. On day 7, cells were stained with anti-CD8a (PerCP-Cy5.5) and anti-Tim3 (BV421) antibodies for flow cytometry or plate reader analysis.
Because TCF1 expression positively correlates with T cell stemness, the greater signal of EGFP a T cell expresses, the less differentiated the T cell is. Furthermore, if the compound also facilitates T cells proliferation, there would be more T cells per well in comparison to the untreated control. Therefore, a compound that not only maintains TCF-1 expression but also facilitates T cell growth would produce the strongest green fluorescence intensity. […] GlcA stands for glucuronic acid.

P14 cells = assay: P14 splenocyte in vitro activation, re-stimulation and expansion; format: cell-based, mouse; conditions: 50 mM; for Fold of proliferation, Normalized to W/O: P14 cells
B16-OVA tumor = format: in vivo, mouse
Method: (§1) Naïve splenocytes from OT-1 mice were stimulated in vitro with OVA257-264 (500 nM) and IL-2 (60 IU/mL) in the presence or absence of an added compound for 3 days at a density of 1 million/mL (100 uL/well in 96/well plate), then expanded for 4 days. On day 7, PD-1, Tim3 and TCF-1 expressions were assessed by flow cytometry by staining cells with anti-CD8a (PerCP-Cy5.5), anti-Tim3 (BV421) and anti-TCF-1 (AF488) antibodies. For adoptive transfer, 0.6M B16-OVA cells (6×10^5) were inoculated subcutaneously 3 to 5 days before transfer in C57BL/6. On the day of adoptive transfer, mice were irradiated with 5 Gy X-ray, randomized according to tumor size, and intravenously injected with 0.2-0.3M of CD8+OT-1 T cells (2×10^5) expanded under different conditions, followed by administration of 50000 IU IL-2 every 12 h for four days. In the control group, mice were injected with cell-free vehicle only. For assessment of adoptive transfer of OT-1 CD8+ T cells activated and expanded by contacting the cells with fructose, on day 9 after transfer, anti-PD-1 (100 ug/mouse) was administered to the mice that had received T cell transfer. For assessment of adoptive transfer of OT-1 CD8+ T cells activated and expanded by contacting cells with Neu5Ac, on day 14 and day 21 after transfer, anti-PD-1 (100 ug/mouse) was administered to the mice that had received T cell transfer. The tumor growth was monitored every 3 to 4 days by measuring tumor size. Percent survival was also monitored and recorded within a period of 40 days post treatment. To evaluate tumor infiltrating OT-1 T cells, 0.6M B16-OVA cells (6×10^5) were inoculated subcutaneously 3 to 5 days before transfer in C57BL/6. On the day of adoptive transfer, mice were irradiated with 5 Gy X-ray, randomized according to tumor size, and intravenously injected with 0.2-0.3M of CD8+OT-1 T cells (2×10^5) expanded under different conditions, followed by administration of 50000 IU IL-2 every 12 h for four days. Tumors were then isolated and assessed for percentage of OT-I T cells from the total CD8+ T cells and OT-1 T cell number per gram of tumor tissue. To evaluate apoptosis, Naïve OT-1 splenocytes were stimulated by OVA257-264 (500 nM) without IL-2 in the presence of absence of sugars for 5 days followed by using Annexin V Apoptosis detection kit (Biolegend). […] To evaluate other cellular characteristics, naïve OT-1 splenocytes were stimulated by OVA257-264 (500 nM) with IL-2 (60 IU/mL) in the presence or absence of sugars for 7 or 8 days. On day 7 or 8 cells were taken and analyzed by assessment of ROS, NADPH/NADP+ ratio, and GSH/GSSG ratio.

OT-1 splenocytes [1] = assay: Apoptosis (Annexin V) and IL-2 production of OT-1 splenocytes stimulated without IL-2; format: cell-based, mouse; conditions: OVA257-264 500 nM without IL-2, 5 days
Method: as §1

OT-1 splenocytes [2] = assay: ROS, NADPH/NADP+ ratio and GSH/GSSG ratio of OT-1 splenocytes; format: cell-based, mouse; conditions: day 7 or 8, with IL-2; vs T cells not treated with sugar
Method: as §1

[3] = test system: MC38 TSA-reactive CD8+ TILs; assay: Rapid expansion of TSA-reactive CD8+ TILs from MC38 tumors; format: cell-based, mouse
Method: Sugars were added at the beginning or during the expansion of the TILs, and kept till the end of expansion. On expansion day 9, phenotypes of the expanded T cells were assessed, and the cells were used for adoptive transfer (FIG. 6E). For adoptive transfer, 0.5 million cells (B16-OVA or MC38) were inoculated subcutaneously on each mouse on day 0, Listeria monocytogenes-OVA (LM-OVA) infection 0.5 million CFU/mice on day 1, and blood analysis was recorded on day 7.

TILs from B16-OVA tumor = format: cell-based, mouse; conditions: day 7 rapid expansion
Method: TILs from B16-OVA tumor were isolated on day10 after inoculation, and Tim-3^−TCF/GFP^+ and Tim-3^+TCF/GFP^− in tetramer positive population were collected by live cell sorting (FIG. 15A). Phenotype features of Tim-3^−TCF/GFP^+ (FIG. 15B) and Tim-3^+TCF/GFP^− (FIG. 15C) were analyzed on day 7 after rapid expansion with feeder cells (TILs/feeder cell: 1/200) in the presence or absence of sugars.
To investigate which population that sugars mainly changed on T cells, B16-OVA cancer cells (7×10^5 cells) were subcutaneously inoculated into the left or right flank of TCF7^GFP mice expressing an EGFP fluorescent reporter from the endogenous Tcf7 locus, which enable us to track the expression of TCF-1 in live cells.

OT-I splenocytes = assay: OT-I splenocyte culture with purine/pyrimidine pathway compounds; format: cell-based, mouse; conditions: CD8+ T cells
Method: We therefore tested if purine and pyrimidine nucleotides have similar effects as N-Acetylneuraminic acid to help maintain less differentiated phenotypes of T cells during expansion. OT-I splenocytes were cultured with 500 nM […] peptide (OVA257-264) for three days at initial cell density of 1×10^6/mL to activate and expand the CD8+ T cell population. Different concentrations of the products or intermediates in purine or pyrimidine de novo synthesis pathways were added on day 3. The tested compounds include, e.g., guanosine, deoxyguanosine, adenosine, deoxyadenosine, inosine, xanthosine, orotidine, uridine, cytidine, deoxycytidine, thymidine, deoxythymidine, 5-Aminoimidazole-4-carboxamide ribonucleotide (AICAR), orotate, and dihydroorotate. The phenotype of expanded T cells were analyzed on day 5.

HA-28z CAR T cells = assay: HA-28z (GD2) CAR T cell expansion with sugars; conditions: 50 mM, 14 days; both CD8^+ and CD4^+ CAR T cells

CC(=O)N[C@H]1[C@H]([C@H](O)[C@H](O)CO)OC(O)(C(=O)O)C[C@@H]1O (stereo partly drawn) [Neu5Ac, N-acetylneuraminic acid]
Tim3^−TCF-1^+ ratio of CD8^+ T cells (%) (OT-1 cells; w/o 2.6): 59.6%
activity at 50000 µM (OT-1 cells; Mus musculus, Splenocyte, 168 h, OT-1 cells, read-out: Proliferation fold, Normalized to W/O): 143%
Fold of proliferation, Normalized to W/O (P14 cells; Day6): 2.29 fold
Tim3^−TCF-1^+ ratio of CD8^+ T cells (%) (P14 cells; Day6, w/o 55.0): 97.4%
Fold of proliferation, Normalized to W/O (P14 cells; Day9): 1.40 fold
Tim3^−TCF-1^+ ratio of CD8^+ T cells (%) (P14 cells; Day9, w/o 3.5): 71.3%
capabilities to control tumor growth by way of tumor volume and survival rate (B16-OVA tumor; treated OT-1 T cells used with anti-PD-1 antibody treatment, vs untreated T cells): significantly better
tumor infiltrating OT-1 T cell numbers (B16-OVA tumor; treated T cells transferred to B16-OVA mice): increased
viability and apoptotic characteristics (OT-1 splenocytes [1]; vs T cells not treated with sugar): enhanced viability and differential apoptotic characteristics
production of IL-2 (OT-1 splenocytes [1]; vs no sugar): significantly greater
GSH/GSSG ratio (OT-1 splenocytes [2]): greater
NADPH/NADP+ ratio (OT-1 splenocytes [2]): greater
ROS (OT-1 splenocytes [2]): significantly less
cell surface anti-CLA (Cutaneous Lymphocyte-associated Antigen) staining [3]: significant increase
reversal of sorted Tim-3^+TCF-GFP^− back to Tim-3^−TCF-GFP^+ phenotype (TILs from B16-OVA tumor): partially reverse
maintenance of progenitor exhausted features of sorted Tim-3-TCF-GFP^+ TILs (TILs from B16-OVA tumor; vs without sugars): maintain more Tim-3^−TCF/GFP^+ cells
purine and pyrimidine biosynthesis end products and certain intermediates (OT-I splenocytes): upregulated
CAR T cells proliferated times faster than cells expanded without sugars (HA-28z CAR T cells): 1.5-2 times
